The source of these data is patent US12139492B2 (Endotarget Inc., priority 2021, dated 2024).

Assay [1] has as its system Mino cells. In words: Antiproliferative effect, MTS cell viability assay, Mino cells. Particulars: Homo sapiens, Mino mantle cell lymphoma cells, read-out: IC50 (anti-proliferation) Mino cells. Format: cell-based. The essentials:
(§1)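 Cells were exposed to compound at 0, 0.001, 0.01, 0.1, 1 and 10 μM for 72 h. Viability was then measured by MTS assay, reading formazan produced by metabolically active cells as absorbance at 490 nm.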
On the technique in general: Tetrazolium dyes change colour on reduction, which living cells bring about.

Assay [2] concerns JeKo-1 cells. The assay can be described thus: Antiproliferative effect, MTS cell viability assay, JeKo-1 cells. In kind it is cell-based. As to conditions: Homo sapiens; JeKo-1 mantle cell lymphoma cells; read-out: IC50 (anti-proliferation) JeKO-1 cells. The essentials:
as §1

Assay [3] concerns the target BTK (Homo sapiens, UniProt Q06187). In words: Degradation of BTK protein in Namalwa cells (Western blot; DC50, Dmax). Particulars: for DC50: cell line not given. A general note: In western blotting, separated proteins are transferred to a membrane and probed.
Where [4] appears, read: read-out: DC50 (BTK degradation), concentration giving 50% reduction of BTK expression level.
Setting [5] is: read-out: Dmax (BTK degradation).

Read-outs that look alike come from different tables or passages of the source.

Chain of BTK (Q06187 whole entry): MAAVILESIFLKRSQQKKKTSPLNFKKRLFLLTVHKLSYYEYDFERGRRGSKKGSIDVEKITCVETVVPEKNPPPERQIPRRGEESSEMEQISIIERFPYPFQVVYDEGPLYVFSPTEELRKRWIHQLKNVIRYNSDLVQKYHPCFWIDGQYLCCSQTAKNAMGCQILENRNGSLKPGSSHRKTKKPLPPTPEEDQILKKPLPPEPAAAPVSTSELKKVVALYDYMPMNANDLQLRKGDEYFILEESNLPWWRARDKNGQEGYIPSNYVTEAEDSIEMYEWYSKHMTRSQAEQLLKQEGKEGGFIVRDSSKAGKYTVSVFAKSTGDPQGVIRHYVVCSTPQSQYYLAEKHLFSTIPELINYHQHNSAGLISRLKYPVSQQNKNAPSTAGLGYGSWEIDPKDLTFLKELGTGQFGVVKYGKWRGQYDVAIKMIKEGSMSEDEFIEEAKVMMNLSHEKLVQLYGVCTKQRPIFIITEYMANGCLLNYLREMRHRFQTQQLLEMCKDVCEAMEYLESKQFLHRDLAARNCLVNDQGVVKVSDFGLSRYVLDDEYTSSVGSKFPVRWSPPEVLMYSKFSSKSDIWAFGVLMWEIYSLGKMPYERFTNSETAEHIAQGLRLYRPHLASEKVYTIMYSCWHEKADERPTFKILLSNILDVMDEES

A word on the DC50: it is the concentration giving 50% degradation. By Dmax is commonly meant the greatest extent of degradation seen. Turning to `Nc1ncnc2c1c(-c1ccc(Oc3ccccc3)cc1)nn2C1CCN(CCN2CCC(CN3CCC(c4ccc(N5CCC(=O)NC5=O)cc4)CC3)CC2)CC1` [Compound 553, 1-(4-(1-((1-(2-(4-(4-amino-3-(4-phenoxyphenyl)-1H-pyrazolo[3,4-d]pyrimidin-1-yl)piperidin-1-yl)ethyl)piperidin-4-yl)methyl)piperidin-4-yl)phenyl)dihydropyrimidine-2,4(1H,3H)-dione], the IC50 in assay [1] and in assay [2] was below 1000 nM in each case. Moreover, the DC50 in assay [3] (setting [4]) was below 10 nM. Also, the greatest degradation seen (Dmax) in assay [3] (setting [5]) is above 90%.
On to `Nc1ncnc2c1c(-c1ccc(Oc3ccccc3)cc1)nn2C1CCN(CCN2CCC(CC3CCN(c4ccc(NC5CCC(=O)NC5=O)cc4)CC3)CC2)CC1` (stereo not drawn) [Compound 559, 3-((4-(4-((1-(2-(4-(4-amino-3-(4-phenoxyphenyl)-1H-pyrazolo[3,4-d]pyrimidin-1-yl)piperidin-1-yl)ethyl)piperidin-4-yl)methyl)piperidin-1-yl)phenyl)amino)piperidine-2,6-dione], for which the IC50 in assay [1] (MINO) and in assay [2] was below 1000 nM in each case. Besides, in assay [3] (setting [4]), the DC50 was below 10 nM. Moreover, in assay [3] (setting [5]), the Dmax was above 90%.
On to `NC(=O)c1c(-c2ccc(Oc3ccccc3)cc2)nn2c1NCCC2C1CCN(CC2CCN(C(=O)N3CCN(Cc4ccc5c(c4)CN(C4CCC(=O)NC4=O)C5=O)CC3)CC2)CC1` (stereo not drawn) [Compound 360, 7-(1-((1-(4-((2-(2,6-dioxopiperidin-3-yl)-1-oxoisoindolin-5-yl)methyl)piperazine-1-carbonyl)piperidin-4-yl)methyl)piperidin-4-yl)-2-(4-phenoxyphenyl)-4,5,6,7-tetrahydropyrazolo[1,5-a]pyrimidine-3-carboxamide], for which the IC50 in assay [1] (MINO) and in assay [2] was above 10000 nM throughout. The compound also showed a Dmax in assay [3] above 75%. The same compound gave a DC50 in assay [3] (BTK degradation) above 50 nM.
With `Nc1ncnc2c1c(-c1ccc(Oc3ccccc3)cc1)nn2C1CCN(C2CCN(CCCCC#Cc3ccc(N4CCC(=O)NC4=O)cc3)CC2)CC1` [Compound 535, 1-(4-(6-(4-(4-amino-3-(4-phenoxyphenyl)-1H-pyrazolo[3,4-d]pyrimidin-1-yl)-[1,4′-bipiperidin]-1′-yl)hex-1-yn-1-yl)phenyl)dihydropyrimidine-2,4(1H,3H)-dione], the IC50 in assay [1] (MINO) and in assay [2] was above 10000 nM throughout. The DC50 in assay [3] (setting [4]) was above 50 nM. The Dmax in assay [3] (setting [5]) is above 50%.
With `NC(=O)c1c(-c2ccc(Oc3ccccc3)cc2)nn2c1NCCC2C1CCN(C2CCN(C(=O)N3CCN(c4ccc5c(c4)C(=O)N(C4CCC(=O)NC4=O)C5=O)CC3)CC2)CC1` (stereo not drawn) [Compound 337, 7-(1′-(4-(2-(2,6-dioxopiperidin-3-yl)-1,3-dioxoisoindolin-5-yl)piperazine-1-carbonyl)-[1,4′-bipiperidin]-4-yl)-2-(4-phenoxyphenyl)-4,5,6,7-tetrahydropyrazolo[1,5-a]pyrimidine-3-carboxamide], the IC50 was above 10000 nM in assay [1] (MINO) and 1000 to 10000 nM in assay [2]. This compound also displayed a Dmax in assay [3] above 50%. In assay [3] (BTK degradation), this compound gave a DC50 above 50 nM.
`NC1=NC=NC2C1C(c1ccc(Oc3ccccc3)cc1)=NN2C1CCN(C(=O)N2CC(C3CN(c4ccc5c(c4)CN([C@H]4CCC(=O)NC4=O)C5=O)C3)C2)CC1` (stereo partly drawn) [Compound 495, (3S)-3-(5-(1′-(4-(4-amino-3-(4-phenoxyphenyl)-3a,7a-dihydro-1H-pyrazolo[3,4-d]pyrimidin-1-yl)piperidine-1-carbonyl)-[3,3′-biazetidin]-1-yl)-1-oxoisoindolin-2-yl)piperidine-2,6-dione]: the IC50 in assay [1] (MINO) and in assay [2] was below 1000 nM each time. In assay [3] (setting [4]), the DC50 is below 10 nM. In addition, the greatest degradation seen (Dmax) in assay [3] (setting [5]) was above 90%.
Consider `NC(=O)c1c(-c2ccc(Oc3ccccc3)cc2)nn2c1NCCC2C1CCN(CC2CCN(C(=O)N3CCN(c4ccc5c(c4)C(=O)N(C4CCC(=O)NC4=O)C5=O)CC3)CC2)CC1` (stereo not drawn) [Compound 357, 7-(1-((1-(4-(2-(2,6-dioxopiperidin-3-yl)-1,3-dioxoisoindolin-5-yl)piperazine-1-carbonyl)piperidin-4-yl)methyl)piperidin-4-yl)-2-(4-phenoxyphenyl)-4,5,6,7-tetrahydropyrazolo[1,5-a]pyrimidine-3-carboxamide], for which the IC50 in assay [1] (MINO) and in assay [2] was above 10000 nM in each case. In addition, in assay [3], the Dmax is above 50%. Also, the DC50 in assay [3] (BTK degradation) is above 50 nM.
As for `Nc1ncnc2c1c(-c1ccc(Oc3ccccc3)cc1)nn2C1CCN(C2CCN(CC3CCN(CC4CN(c5ccc6c(c5)C(=O)N(C5CCC(=O)NC5=O)C6=O)C4)CC3)CC2)CC1` (stereo not drawn) [Compound 435, 5-(3-((4-((4-(4-amino-3-(4-phenoxyphenyl)-1H-pyrazolo[3,4-d]pyrimidin-1-yl)-[1,4′-bipiperidin]-1′-yl)methyl)piperidin-1-yl)methyl)azetidin-1-yl)-2-(2,6-dioxopiperidin-3-yl)isoindoline-1,3-dione], the IC50 in assay [1] (MINO) is below 1000 nM; in assay [2] it was 1000 to 10000 nM. In assay [3] (Namalwa B lymphocyte cells, various concentrations, 24 hours, Western blot), the “degradation of BTK protein” value was “dose-dependent degradation”. Moreover, the DC50 in assay [3] (setting [4]) is below 10 nM. Moreover, the Dmax in assay [3] (setting [5]) is above 90%.
Consider `Nc1ncnc2c1c(-c1ccc(Oc3ccccc3)cc1)nn2C1CCN(CCN2CCC(CN3CCC(c4ccc5c(c4)oc(=O)n5C4CCC(=O)NC4=O)CC3)CC2)CC1` (stereo not drawn) [Compound 545, 3-(6-(1-((1-(2-(4-(4-amino-3-(4-phenoxyphenyl)-1H-pyrazolo[3,4-d]pyrimidin-1-yl)piperidin-1-yl)ethyl)piperidin-4-yl)methyl)piperidin-4-yl)-2-oxobenzo[d]oxazol-3(2H)-yl)piperidine-2,6-dione], for which the IC50 is below 1000 nM in assay [1] (MINO) and 1000 to 10000 nM in assay [2]. In addition, in assay [3] (setting [4]), the DC50 was in the range of 10 to 50 nM. Further, the Dmax in assay [3] (setting [5]) is above 90%.
`Nc1ncnc2c1c(-c1ccc(Oc3ccccc3)cc1)nn2C1CCN(CC2CCN(CC3CN(CC4CN(c5ccc6c(c5)CN(C5CCC(=O)NC5=O)C6=O)C4)C3)C2)CC1` (stereo not drawn) [Compound 428, 3-(5-(3-((3-((3-((4-(4-amino-3-(4-phenoxyphenyl)-1H-pyrazolo[3,4-d]pyrimidin-1-yl)piperidin-1-yl)methyl)pyrrolidin-1-yl)methyl)azetidin-1-yl)methyl)azetidin-1-yl)-1-oxoisoindolin-2-yl)piperidine-2,6-dione]: the IC50 in assay [1] (MINO) and in assay [2] was 1000 to 10000 nM each time. In addition, in assay [3] (setting [4]), the DC50 lay within 10 to 50 nM. In assay [3] (setting [5]), the Dmax is above 90%.
For the compound `NC(=O)c1c(-c2ccc(Oc3ccccc3)cc2)nn2c1NCCC2C1CCN(CC2CCN(C(=O)N3CCC(C4CCN(c5ccc6c(c5)CN(C5CCC(=O)NC5=O)C6=O)CC4)CC3)CC2)CC1` (stereo not drawn) [Compound 366, 7-(1-((1-(1′-(2-(2,6-dioxopiperidin-3-yl)-1-oxoisoindolin-5-yl)-[4,4′-bipiperidine]-1-carbonyl)piperidin-4-yl)methyl)piperidin-4-yl)-2-(4-phenoxyphenyl)-4,5,6,7-tetrahydropyrazolo[1,5-a]pyrimidine-3-carboxamide], the IC50 in assay [1] (MINO) and in assay [2] was below 1000 nM in each case. The same compound registered a Dmax in assay [3] above 90%. In assay [3] (BTK degradation), this compound yielded a DC50 below 10 nM.
